Measurements published in patent publication US10111858B2, “Pharmaceutical for prophylaxis or treatment of hypertension” (Daiichi Sankyo Company, Limited, priority 2013, dated 2018).

Assays:
Format in all cases: in vivo, rat
[1] = test system: Dahl rats (salt-sensitive hypertensive rats); experiment: Combined administration of MR antagonist and angiotensin II receptor antagonist: inhibitory action on blood pressure elevation (Example 1); conditions: male Dahl rats, 8% salt diet, oral for 6 weeks, trough on day 42; compound (Ia) 1.0 mg/kg, olmesartan medoxomil 10 mg/kg, alone or combined; mean±standard error
Experimental: Male Dahl rats (DIS/Eis [Dahl-Iwai S], SPF grade, supplier: Japan SLC, Inc., salt-sensitive hypertensive rats) at 7 weeks of age were divided into groups (6 rats per group).
(§1) In a normal group and a control group, 0.5% methyl cellulose solution was orally administered for 6 weeks, and in the other groups, a test substance was orally administered for 6 weeks. The test substance was suspended in 0.5% methyl cellulose solution and administered at a volume of 2 mL/kg. Additionally, in the groups other than the normal group, an 8% salt diet (FR-2 containing 8% NaCl, manufactured by Funabashi Farm Co., Ltd.) was given ad libitum from the start of administration of the test substance. The composition of the groups and the administered test substances [in parentheses] are as follows.
Group 3: compound (Ia) administration group [compound (Ia) (1.0 mg/kg)]
Group 4: olmesartan medoxomil administration group [olmesartan medoxomil (10 mg/kg)]
Group 5: combined administration group [compound (Ia) (1.0 mg/kg)+olmesartan medoxomil (10 mg/kg)]
The results obtained by measuring systolic blood pressure using a noninvasive sphygmomanometer for rats and mice (BP-98A, Softron Co., Ltd.) during the trough period at the 6th week of administration of the test substance (on day 42 from the start of administration of the test substance) are shown in Table 1 (the values in the table represent mean±standard error).

[2] = test system: Dahl rats (salt-sensitive hypertensive rats); experiment: Combined administration of MR antagonist and diuretic: inhibitory action on proteinuria (Example 3); conditions: male Dahl rats, 8% salt diet, oral for 6 weeks, 24-hour urine collection on day 41; compound (Ia) 0.3 mg/kg, hydrochlorothiazide 1 mg/kg, alone or combined; mean±standard error
Experimental: (§2) Male Dahl rats (DIS/Eis [Dahl-Iwai S], SPF grade, supplier: Japan SLC, Inc., salt-sensitive hypertensive rats) at 7 weeks of age were divided into groups (6 or 9 rats per group).
as §1, with “groups,” for “groups and”, “the parentheses], and the number of rats (n) per group” for “parentheses]”, “follows. […]” for “follows.”
(§3) Systolic blood pressure was measured by using a noninvasive sphygmomanometer for rats and mice (BP-98A, Softron Co., Ltd.) during the trough period at the 6th week of administration of the test substance (on day 40 from the start of administration of the test substance). In addition, on day 41 from the start of administration of the test substance, urine collection for 24-hour was performed using a metabolic cage (2100-R, Watanabe Isolator Systems Co., Ltd.), and the daily urinary protein excretion per body weight was calculated.

[3] = test system: Dahl rats (salt-sensitive hypertensive rats); experiment: Combined administration of MR antagonist and diuretic: inhibitory action on blood pressure elevation (Example 3); conditions: male Dahl rats, 8% salt diet, oral for 6 weeks, trough on day 40; compound (Ia) 0.3 mg/kg, hydrochlorothiazide 1 mg/kg, alone or combined; mean±standard error
Experimental: as §2
as §1, with “groups,” for “groups and”, “the parentheses], and the number of rats (n) per group” for “parentheses]”, “follows. […]” for “follows.”
as §3

[4] = test system: Dahl rats (salt-sensitive hypertensive rats); experiment: Combined administration of MR antagonist and calcium antagonist: inhibitory action on blood pressure elevation (Example 2); conditions: male Dahl rats, 8% salt diet, oral for 6 weeks, trough on day 41; compound (Ia) 0.1 mg/kg, amlodipine 1 mg/kg, alone or combined; mean±standard error
Experimental: In a normal group and a control group, 0.5% methyl cellulose solution was orally administered for 6 weeks, and in the other groups, a test substance was orally administered for 6 weeks. The test substance was suspended in 0.5% methyl cellulose solution and administered at a volume of 2 mL/kg. Additionally, in the groups other than the normal group, an 8% salt diet (FR-2 containing 8% NaCl, manufactured by Funabashi Farm Co., Ltd.) was given ad libitum from the start of administration of the test substance. The composition of the groups, the administered test substances [ in parentheses], and the number of rats (n) per group are as follows.
Group 4: amlodipine administration group [amlodipine (1 mg/kg)] n=6

For `Cc1c(C(=O)Nc2ccc(S(C)(=O)=O)cc2)cn(CCO)c1-c1ccccc1C(F)(F)F` (atropisomer, axis not shown) [compound (Ia), (S)-1-(2-hydroxyethyl)-4-methyl-N-[4-(methylsulfonyl)phenyl]-5-[2-(trifluoromethyl)phenyl]-1H-pyrrole-3-carboxamide], the Systolic blood pressure [1] was 170 ± 4 mmHg, the “Daily urinary protein excretion” value [2] was 190 ± 16 mg/kg/day and the Systolic blood pressure [3] was 196 ± 7 mmHg. For the same molecule, the Systolic blood pressure [4] was 207 ± 7 mmHg.
`NS(=O)(=O)c1cc2c(cc1Cl)NCNS2(=O)=O` [hydrochlorothiazide, 6-chloro-3,4-dihydro-2H-1,2,4-benzothiadiazine-7-sulfonamide 1,1-dioxide, reference compound] was tested, and the “Daily urinary protein excretion” value [2] was 320 ± 65 mg/kg/day and the Systolic blood pressure [3] was 212 ± 3 mmHg.
